Reference: patent publication US20230285347A1, “Preterm Labour with Prostaglandin E2 Receptor Agonists” (IMPERIAL COLLEGE INNOVATIONS LIMITED, priority 2020, published 2023)
“Also recorded” adds a separate entry of the source.

Assays:
Format in all cases: cell-based
EP2 [1] = biological target: T1, EP2 (Homo sapiens, UniProt P43116); assay: PGE2 release by ELISA in primary myometrial cells; settings: 6 hours, butaprost 10 μM, PGN9856i 100 nM, without OT, FIG. 7, FIG. 12
T1 construct: primary human myocytes cultured from term pregnant, non-labouring, myometrium; endogenous in cells; host or cells: primary human myometrial cells (myocytes) cultured from pregnant myometrium
Text: Tissue culture media collected and used for ELISA. Data shown as mean±SEM from at least 3 independent experiments. One-way ANOVA with Dunnet's multiple comparison post-hoc test: *p<0.05, **p<0.01. PGN9856i is unable to elicit PGE2 release in primary myometrial cells.
(§1) In the myometrium EP2 is an important regulator of parturition. To assess if PGN9856i, butaprost and AH13205 induce similar second messenger profiles in the myometrium as HEK 293 cells, primary human myocytes cultured from term pregnant, non-labouring, myometrium, were treated with each ligand and intracellular cAMP, calcium and PGE2 release was measured.
Myometrial tissue was acquired at St. Mary's hospital, Queen Charlotte and Chelsea hospital and Charing Cross hospital, London. Tissue was obtained from women provided with informed written consent with the approval from the Riverside Research Ethics Committee (RREC 3357, 1997-5089, 19/LO/1657) and experiments were carried out under the committee's guidelines and recommendations. […]
Myometrial cells were treated for 6-hours with EP2 agonist (butaprost 10 μM, AH13205 10 μM or PGN9856i 100 nM) or DMSO with/without 1-hour OT (100 nM) pre-treatment. […] Samples were defrosted at room temperature and vortexed before quantification of IL-6 concentrations via ELISA as per manufacturer's instructions (Enzo Lifesciences).

EP2 [2] = biological target: T1, EP2; assay: Intracellular calcium in myometrial cells with/without oxytocin pre-treatment; settings: OT pre-treatment 1 hour, 100 nM; butaprost 10 μM, AH13205 10 μM, PGN9856i 100 nM; FIG. 11
Description: Intracellular calcium response in myometrial cells with/without OT pre-treatment (1 hour, 100 nM) stimulated with butaprost (10 μM), AH13205 (10 μM) or PGN9856i (100 nM). Data are the mean of the maximum fluorescence intensity for each cell measured normalised to background (F-FO). Shown as fold-change over butaprost response. One-way ANOVA with Dunnett's multiple comparison post-hoc test: ##p<0.01. One-sample t-test: *p<0.05.

EP2 [3] = biological target: T1, EP2; assay: cAMP in non-labouring myometrial cells with/without oxytocin pre-treatment; settings: OT pre-treatment 1 hour, 100 nM; butaprost 10 μM, AH13205 10 μM, PGN9856i 100 nM; FIG. 10
Description: Myometrial cells with/without oxytocin (OT) pre-treatment (1 hour, 100 nM) were treated with IBMX (5 minutes, 0.5 mM) before 1 minute stimulation with IBMX with/without either DMSO, butaprost (10 μM), AH13205 (10 μM) or PGN9856i (100 nM). cAMP concentrations were normalised to protein. Each patient's data normalised to butaprost response and shown as mean±SEM, n=6. One-sample t-test: #p<0.05. ##p<0.01. One-way ANOVA with Sidak's multiple comparison post-hoc test: **p<0.01.
Confluent myometrial cells were treated with/without OT (100 nM) for 1 hour before 3 PBS washes and the addition of […] IBMX (3-isobutyl-1-methylxanthine) in PBS for 5 minutes at 37° C. This was exchanged for 0.5 μM IBMX in PBS plus either DMSO, butaprost (10 μM), AH13205 (10 μM) or PGN9856i (100 nM) for […]. Cells were lysed in Cisbio cAMP lysis buffer with 0.2% TritonX-100 and centrifuged for 15 minutes at 16,000 g. Lysates were normalized to protein concentration determined by Coomassie (Bradford) Protein Assay Kit and analysed as per manufacturers' protocol (Cisbio Gαs dynamic assay) using a PHERAstar FSX.

EP2 [4] = biological target: T1, EP2; assay: Intracellular cAMP in primary human myocytes from term pregnant non-labouring myometrium; settings: butaprost 10 μM, AH13205 10 μM, PGN9856i 100 nM, FIG. 5
Description: as §1
Myometrial tissue was acquired at St. Mary's hospital, Queen Charlotte and Chelsea hospital and Charing Cross hospital, London. Tissue was obtained from women provided with informed written consent with the approval from the Riverside Research Ethics Committee (RREC 3357, 1997-5089, 19/LO/1657) and experiments were carried out under the committee's guidelines and recommendations. Tissues were obtained from term (38+0-40 weeks gestation) pregnant women undergoing elective caesarean from the upper margin of the incision made at the lower segment of the uterus, before or after the onset of labor. Tissues taken from women in early labour (<3 cm cervical dilation) or late labour (>3 cm cervical dilation) with/without induction with syntocinon, an oxytocin analogue. Tissue was only taken from uncomplicated, singleton pregnancies.
Tissue was stored at 4° C. in phosphate buffered saline until fine dissection with scalpels and dissociation at 37° C. for 1 hour in a sterile-filtered mix of Dulbecco's modified Eagle's medium (DMEM) (Sigma Aldrich)/Ham's F-12 Nutrient Mixture (Sigma Aldrich) and serum-free DMEM (Sigma Aldrich) (1:1 v/v) containing collagenase 1A (Sigma Aldrich)(1 mg/ml), collagenase X (Sigma Aldrich)(1 mg/ml) and bovine serum albumin (Sigma Aldrich) (2 mg/ml). […]
Confluent myometrial cells were treated with/without OT (100 nM) for 1 hour before 3 PBS washes and the addition of […] IBMX (3-isobutyl-1-methylxanthine) in PBS for 5 minutes at 37° C. […] Lysates were normalized to protein concentration determined by Coomassie (Bradford) Protein Assay Kit and analysed as per manufacturers' protocol (Cisbio Gαs dynamic assay) using a PHERAstar FSX.

human FLAG-EP2 = biological target: T2, human FLAG-EP2 (Homo sapiens, UniProt P43116); assay: Intracellular Ca2+ release in HEK 293 cells stably expressing EP2 (Fluo-4, confocal; Gαq/11 readout); settings: HEK 293 EP2 cells; butaprost 10 μM, AH13205 10 μM, PGN9856i 100 nM; vs vehicle; FIG. 3
T2 construct: FLAG; expressed in transfected cells
Description: To measure Gαq/11 activation, HEK 293 cells stably expressing human FLAG-EP2 were pre-labelled with a Ca2+ indicator dye and acutely stimulated with each ligand.
HEK 293 cells, prepared following the same methodology as outlined in Example 1, were seeded onto Mattek dishes with 14 mm by 1.5 mm glass coverslips. Cells were incubated with Fluo-4am Ca2+ indicator (ThermoFisher) as per manufacturer's instructions. […]. Time-series images were acquired using a Leica SP5 confocal microscope, Leica LAS AF image acquisition software and a 488 nm excitation laser. HEK cells were imaged using a 10× dry objective. EP2 agonists (butaprost 10 μM, AH13205 10 μM or PGN9856i 100 nM) were added following measurement of basal fluorescence. Raw files were analysed using Fiji Time series analyser plugin to find the maximal fluorescent intensity, which was then averaged across cells in each condition.
The maximal fluorescence intensity was measured by live confocal microscopy.

T1 sequence (P43116 whole entry): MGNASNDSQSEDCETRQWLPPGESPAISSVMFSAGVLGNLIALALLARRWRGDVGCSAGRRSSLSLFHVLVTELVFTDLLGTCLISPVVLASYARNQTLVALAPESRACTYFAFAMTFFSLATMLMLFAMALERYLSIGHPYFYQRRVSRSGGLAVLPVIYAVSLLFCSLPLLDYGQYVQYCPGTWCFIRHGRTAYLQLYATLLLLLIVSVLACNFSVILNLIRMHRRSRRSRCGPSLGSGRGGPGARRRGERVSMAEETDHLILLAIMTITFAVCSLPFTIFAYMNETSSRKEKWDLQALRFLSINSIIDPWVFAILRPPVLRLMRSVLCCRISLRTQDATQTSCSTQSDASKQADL
T2 sequence (P43116 whole entry): as above

Row | SMILES | PGE2 release (EP2 [1]) | calcium response with OT pre-treatment (EP2 [2]) | effect of OTR activation on ligand's ability to increase intracellular cAMP (EP2 [3]) | release of intracellular cAMP (EP2 [4]) | intracellular Ca2+ release (maximal fluorescence intensity) (human FLAG-EP2)
1 | CC(C)OC(=O)COc1cccc(NC(=O)c2cc(-c3cccc(F)c3)ccc2F)c1 [PGN9856i, propan-2-yl 2-(3-{3′,4-difluoro-[1,1′-biphenyl]-3-amido}phenoxy)acetate] | unable to activate; also recorded: unable to cause PGE2 release | unable to elicit a response | significantly reduced | able to elicit release of intracellular cAMP | unable to elicit intracellular Ca2+ release
2 | CCCC1([C@H](O)C/C=C/[C@H]2[C@H](O)CC(=O)[C@@H]2CCCCCCC(=O)OC)CCC1 [butaprost] | significantly enhanced PGE2 release | significantly enhance the calcium response | significantly reduced | able to elicit release of intracellular cAMP | enhanced Ca2+ significantly above vehicle
